Test results taken from US20110086923A1, “Method to increase oxygen in male and female sexual organs through the topical use of perfluorocarbons” (priority 2009, published 2011).

Test: Physical properties of F-tert-butylcyclohexane
Type: physicochemical
Description: Oxycyte™ is a perfluorocarbon emulsion oxygen carrier. The active ingredient in Oxycyte™, perfluoro(tert-butylcyclohexane) (C10F20, MW-500), also known as F-tert-butylcyclohexane or “FtBu”, is a saturated alicyclic PFC.
Oxycyte™ can be used as a PFC composition in the methods and uses described herein. Physical properties of F-tert-butylcyclohexane are as follows: […]

Density: 1.97 g/mL
Kinematic Viscosity: 5.378 cP
lipophilicity: non-lipophilic
water solubility: non-water soluble
Vapor Pressure @ 25° C. (25° C.): 3.8 mmHg
Vapor Pressure @ 37° C. (37° C.): 4.4 mmHg
Compound: FC(F)(F)C(C(F)(F)F)(C(F)(F)F)C1(F)C(F)(F)C(F)(F)C(F)(F)C(F)(F)C1(F)F [Perfluoro(tert-butylcyclohexane), perfluoro(tert-butylcyclohexane)]
